Biological target: T1, BRDT (Mus musculus, UniProt Q91Y44)
T1 construct: mBRDT(1) 23–133, first (N-terminal) bromodomain
Assay: AlphaScreen competition with H4Kac4 peptide (IC50); ITC
Format: binding

Cc1sc2c(c1C)C(c1ccc(Cl)cc1)=N[C@@H](CC(=O)OC(C)(C)C)c1nnc(C)n1-2 [(+)-JQ1]
IC50: 10 nM
